ChEMBL document CHEMBL1201862, “PubChem BioAssay data set” (2004)
Activity calls are given as the source filed them. Cut-off read from the data, not from the text of the source, for most assays here: actives have a measured EC50 and inactives only a lower limit.

biological target: T1, RNA-binding protein pos-1 (Caenorhabditis elegans, UniProt G5EF15); experiment: disruptors of C. elegans POS-1 RNA interaction – biochemical, fluorescence polarization, dose response (AID 1964); settings: not given;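 note: purified POS-1 fused to maltose binding protein made in E. coli; potency of compounds blocking POS-1 binding to fluorescent RNA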
T1 sequence (G5EF15 whole entry): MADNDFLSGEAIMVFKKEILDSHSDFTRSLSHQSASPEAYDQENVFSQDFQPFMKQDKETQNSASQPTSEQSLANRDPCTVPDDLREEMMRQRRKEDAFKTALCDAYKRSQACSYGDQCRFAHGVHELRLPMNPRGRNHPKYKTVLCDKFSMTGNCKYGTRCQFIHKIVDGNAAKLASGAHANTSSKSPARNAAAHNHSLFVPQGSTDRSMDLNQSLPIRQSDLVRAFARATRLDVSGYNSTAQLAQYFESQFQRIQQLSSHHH
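Throughout, for AC50: cells exposed to compound for roughly 70 hours or longer before luminescence read.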

Row | Compound | EC50
1 | N#CC(C#N)=Cc1ccc(NC(=O)c2ccc(Br)cc2)cc1 | > 300 µM (not active)
2 | CC1(C)CC(=O)C2=C(C1)OC(N)=C(C#N)[C@@]21C(=O)N(CC(N)=O)c2ccccc21 | > 300 µM (not active)
3 | Cc1cc(C)cc(N2C(=O)/C(=C/Nc3ccc(N4CCOCC4)cc3)C(=O)NC2=S)c1 | 7.92 µM (active)
4 | Cc1ccc(-c2ccc(CCC(=O)O)n2-c2cccc(C(=O)O)c2)cc1 | > 300 µM (not active)
5 | CCOC(=O)C1Nc2ccc(OC(F)(F)F)cc2C2C=CCC12 (configuration not stated) | > 300 µM (not active)
6 | CC(C)(C)N=C(S)NCCc1ccccc1 | > 300 µM (inconclusive)
7 | COc1ccc(C(=O)/C=C/c2ccc(N3CCCCC3)c([N+](=O)[O-])c2)c(OC)c1 | > 300 µM (not active)
8 | CC1(OC(=O)C2CCCC2)C(=O)C=C2C=C(c3ccsc3)OC=C2C1=O (configuration not stated) | 47.8 µM (active)
9 | Cc1cccc(NC(=O)/C(C#N)=C\c2cc(C)n(-c3ccc(C(=O)O)cc3)c2C)c1 | 84 µM (active)
10 | O=C1OCc2cc(-n3cccc3)ccc21 | > 300 µM (not active)

test system: H4; experiment: Luminescence Cell-Based Dose Response HTS to Identify Activators of 5'UTR Stem-Loop Driven Prion Protein mRNA Translation in H4 Neuroglioblastoma Cells. [Related pubchem assays: 1829 (Project Summary), 1814 (Primary HTS)]; format: functional; settings: Homo sapiens

Row | Compound | EC50
11 | Cc1ccc(C(=O)Nc2nc3ccccc3n2CCN2CCCC2)cc1 | 10.9 µM (active)

biological target: T2, Zinc finger protein mex-5 (Caenorhabditis elegans, UniProt Q9XUB2); experiment: potency of MEX-5 RNA-binding blockers – biochemical, C. elegans, fluorescence polarization, dose response (AID 1960); settings: not given
T2 sequence (Q9XUB2 whole entry): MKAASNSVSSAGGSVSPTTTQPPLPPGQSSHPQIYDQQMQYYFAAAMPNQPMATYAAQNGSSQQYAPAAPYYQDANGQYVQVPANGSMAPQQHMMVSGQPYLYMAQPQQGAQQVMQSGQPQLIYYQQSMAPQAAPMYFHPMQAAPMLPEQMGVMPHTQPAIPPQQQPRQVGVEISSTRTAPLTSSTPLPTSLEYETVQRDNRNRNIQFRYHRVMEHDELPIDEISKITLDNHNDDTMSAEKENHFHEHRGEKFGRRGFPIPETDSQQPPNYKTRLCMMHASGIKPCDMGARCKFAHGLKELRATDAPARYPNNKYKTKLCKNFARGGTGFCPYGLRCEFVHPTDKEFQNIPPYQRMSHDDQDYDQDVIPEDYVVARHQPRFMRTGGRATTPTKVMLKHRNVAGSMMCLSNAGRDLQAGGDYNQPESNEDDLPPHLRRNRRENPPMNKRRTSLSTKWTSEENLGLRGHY

Row | Compound | EC50
12 | N#CC(C#N)=Cc1ccc(NC(=O)c2ccc(Br)cc2)cc1 | > 300 µM (not active)
13 | CC1(C)CC(=O)C2=C(C1)OC(N)=C(C#N)[C@@]21C(=O)N(CC(N)=O)c2ccccc21 | > 300 µM (not active)
14 | Cc1cc(C)cc(N2C(=O)/C(=C/Nc3ccc(N4CCOCC4)cc3)C(=O)NC2=S)c1 | 5.42 µM (inconclusive)
15 | Cc1ccc(-c2ccc(CCC(=O)O)n2-c2cccc(C(=O)O)c2)cc1 | > 300 µM (not active)
16 | CCOC(=O)C1Nc2ccc(OC(F)(F)F)cc2C2C=CCC12 (configuration not stated) | > 300 µM (not active)
17 | CC(C)(C)N=C(S)NCCc1ccccc1 | > 300 µM (not active)
18 | COc1ccc(C(=O)/C=C/c2ccc(N3CCCCC3)c([N+](=O)[O-])c2)c(OC)c1 | > 300 µM (not active)
19 | CC1(OC(=O)C2CCCC2)C(=O)C=C2C=C(c3ccsc3)OC=C2C1=O (configuration not stated) | 37.1 µM (active)
20 | Cc1cccc(NC(=O)/C(C#N)=C\c2cc(C)n(-c3ccc(C(=O)O)cc3)c2C)c1 | > 300 µM (not active)
21 | O=C1OCc2cc(-n3cccc3)ccc21 | > 300 µM (not active)

test system: not listed separately; experiment: Luminescence Cell-Based Dose Retest to Confirm Inhibitors of Cancer Stem Cells. [Related pubchem assays (depositor defined):AID2717, AID2721]; format: functional; settings: Homo sapiens

Row | Compound | AC50
22 | COc1ccc(C(=O)/C=C/c2ccc(N3CCCCC3)c([N+](=O)[O-])c2)c(OC)c1 | 4.31 µM (active)
